Assay results: patent US10093629B2, “Heterocyclic compounds and their use as retinoid-related orphan receptor (ROR) gamma-T inhibitors” (Takeda Pharmaceutical Company Limited, priority 2014, dated 2018)

Experiments:
[1] = molecular target: T1, RORγt (Homo sapiens, UniProt P51449); assay: RORγt binding test using fluorescent-labeled synthetic ligand (TR-FRET); settings: read-out: binding inhibitory rate of fluorescent-labeled synthetic ligand to RORγt at test compound 1 μM
T1 sequence (P51449 1-497 isoform P51449-2): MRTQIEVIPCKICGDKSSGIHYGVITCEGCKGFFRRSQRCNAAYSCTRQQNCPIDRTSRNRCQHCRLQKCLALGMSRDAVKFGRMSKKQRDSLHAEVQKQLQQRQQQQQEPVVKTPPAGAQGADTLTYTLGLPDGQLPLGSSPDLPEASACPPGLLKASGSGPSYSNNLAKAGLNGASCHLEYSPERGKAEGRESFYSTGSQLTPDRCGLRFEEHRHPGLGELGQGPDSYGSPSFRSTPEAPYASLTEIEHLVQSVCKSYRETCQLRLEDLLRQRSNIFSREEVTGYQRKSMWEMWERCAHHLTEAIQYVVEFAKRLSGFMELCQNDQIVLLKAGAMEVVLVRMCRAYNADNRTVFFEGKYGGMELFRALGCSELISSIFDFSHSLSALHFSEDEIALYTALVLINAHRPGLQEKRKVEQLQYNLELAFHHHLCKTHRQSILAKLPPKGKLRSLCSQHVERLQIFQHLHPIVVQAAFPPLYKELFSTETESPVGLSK
Experimental: RORγt Binding Test using Fluorescent-Labeled Synthetic Ligand
The binding activity of the test compound to RORγt was measured by a time resolved fluorescence resonance energy transfer method (TR-FRET) utilizing histidine-tagged RORγt, fluorescent-labeled synthetic ligand and terbium-labeled anti-histidine tag antibody (Invitrogen). First, a test compound diluted with an assay buffer (20 mM Tris-HCl (pH 7.5), 100 mM NaCl, 1 mM DTT, 0.1% BSA) was added to a 384 well plate by 3 μL. Then, RORγt diluted with an assay buffer to 240 nM was added by 3 μL, after which fluorescent-labeled synthetic ligand diluted with the assay buffer to 12 μM was added by 3 μL, and the mixture was stood at room temperature for 20 min. Thereafter, a terbium-labeled anti-histidine tag antibody diluted with the assay buffer to 8 nM was added by 3 μL. The mixture was stood at room temperature for 20 min, and fluorescence intensity (excitation wavelength 320 nm, fluorescence wavelength 520 nm, delay time 100 microseconds) was measured by Envision (PerkinElmer).

[2] = molecular target: T1, RORγt; assay: Cofactor recruitment test (Alpha Screen, biotinylated SRC-1 peptide); type: biochemical; settings: read-out: signal value inhibitory rate at test compound 1 μM
Experimental: Cofactor Recruitment Test
Cofactor recruitment test was performed by Alpha Screen (Histidine Detection Kit, PerkinElmer) method. First, a test compound was diluted with an assay buffer (50 mM Tris-HCl (pH 7.5), 50 mM KCl, 1 mM DTT, 0.1% BSA) and added to a 384 well plate by 5 μL. […] The mixture was stood in a dark place for 1 hr, and the signal value was measured by Envision (PerkinElmer).

[3] = system: IL-17 production in human blood; assay: Effect on IL-17 production in human blood; type: cell-based; settings: 72 h; 10 μM test compound; human peripheral blood, IL-23 and Dynabeads stimulation, 3 days; read-out: percent inhibition at 10 μM (IL-17 production)
Experimental: Effect on IL-17 Production in Human Blood
The inhibitory effect of the test compound on IL-17 production in human blood was evaluated as follows. First, 150 μL of peripheral blood collected from healthy individuals using heparinized vacuum blood collection tubes was dispensed into each well of a 96-well plate (Corning), and 45 μL of RPMI 1640 medium (Gibco) containing 10% fetal bovine serum (FBS, Hyclone) and 30 μL of the test compound diluted with the medium were added to each well. The plate was then cultured for 30 min at 37° C. The cells were subsequently stimulated by adding 30 μL of 100 ng/mL human IL-23 (R&D) and 45 μL of Dynabeads Human (Invitrogen) to each well and culturing the plate for 3 days at 37° C. In wells without stimulation, 75 μL of RPMI 1640 medium containing 10% FBS was added instead of the IL-23 and Dynabeads solution. After culturing for 3 days, the culture supernatant was collected, and the amount of IL-17 in the supernatant was measured using an IL-17 ELISA kit (R&D).
The results (percent inhibition of IL-17 production with 10 μM of the test compound) measured by the above-mentioned method are shown in Table 8.

[4] = system: IL-17A gene expression; assay: Effect on IL-23-induced cytokine expression in mice; type: in vivo, mouse; settings: 10 mg/kg oral, 30 min before and 8 hr after IL-23; ear of Balb/c mice; versus the negative control group
Experimental: Effect on IL-23-Induced Cytokine Expression in Mice
A mouse IL-23 solution (500 ng/10 μL, prepared by Takeda Pharmaceutical Company Limited) or PBS (10 μL, negative control group) was administered intradermally in the ear of Balb/c mice (Charles River Japan, male, 7 weeks old). Twenty-four hr after administration, the ear was resected under isoflurane anesthesia. The test compound was suspended in 0.5% methylcellulose and administered orally 30 min before and 8 hr after IL-23 administration.
RNA extraction from the ear tissue and quantitative PCR were performed as follows. Specifically, ear tissue 5 mm in diameter was punched from an area of the resected ear centering on the IL-23 injection site, and the tissue was immersed in RNAlater (QIAGEN) for at least 18 hr. The RNAlater-treated ear tissue was homogenized in 350 μL of RLT buffer (RNeasy mini kit, QIAGEN) and treated (55° C., 10 min) with Proteinase K (QIAGEN). Total RNA was then extracted according to the RNeasy mini kit protocol. The RNA thus obtained was then reverse transcribed into cDNA using the High-Capacity RNA-to-cDNA kit (Applied Biosystems), and the amount of each gene expressions was measured by real-time PCR (Viia7™, Applied Biosystems). The PCR buffer used was TaqMan Fast Advanced Master Mix (Applied Biosystems), and TaqMan Gene Expression Assays (Applied Biosystems) Mm00439618_m1 (IL-17A) and 4352341E (β-actin) were used for each gene detection. The IL-17A gene expression level was normalized to the β-actin gene expression level, and the percent inhibition of IL-17A gene expression with the test compound was then calculated.
The results (percent inhibition of IL-17A gene expression with oral administration of the test compound) measured by the above-mentioned method are shown in Table 9.

[5] = molecular target: T1, RORγt; assay: Jurkat reporter test (human IL-17 ROR response element luciferase, RORγt vector); type: cell-based; settings: test compound 3 μM; Jurkat cells; read-out: luminescence level inhibitory rate at test compound 3 μM
Experimental: The Jurkat cells used for the reporter test were cultured in a culture medium (RPMI (Invitrogen), 10% FCS (AusGeneX), 100 U/mL penicillin, 100 μg/mL streptomycin). On the day of the test, 4×10^7 cells were recovered by a centrifugal operation (1000 rpm, 5 min.) and suspended in PBS (phosphate buffered saline) (Invitrogen). Thereafter, the cells were recovered again by a centrifugal operation, and suspended in 2 mL of R buffer (NEON transfection kit, Invitrogen). […] Gene transfer was performed by Electroporation apparatus (NEON, Invitrogen) under the conditions of pulse voltage 1350 V, interval 10 milliseconds, number of times 3. The cells after gene transfer were suspended in 40 mL of a reaction medium (RPMI, 10% Lipid reduced FCS (HyClone), 10 mM HEPES (pH 7.5), 100 U/mL penicillin, 100 μg/mL streptomycin, 5 μM lovastatin), and plated in a 96 well plate by 90 μL. A test compound diluted with the reaction medium was added by 10 μL, and the cells were cultured overnight in an incubator. Bright-Glo (Promega) was added by 100 μL, and the mixture was stirred at room temperature for 10 min, and the luminescence level was measured by Envision (PerkinElmer).

| SMILES | inhibition at 1 µM [1] [%] | inhibition at 1 µM [2] [%] | inhibition at 10 µM [3] [%] | percent inhibition of IL-17A gene expression [4] [%] | inhibition at 3 µM [5] [%] |
| --- | --- | --- | --- | --- | --- |
| CCOc1ccc2c(c1)CCN(C(=O)[C@H]1C[C@H](C(=O)O)C1)[C@H]2C(=O)Nc1cc(F)c([Si](C)(C)C)c(F)c1 [Example 9, trans-3-(((1R)-1-((3,5-difluoro-4-(trimethylsilyl)phenyl)carbamoyl)-6-ethoxy-3,4-dihydroisoquinolin-2(1H)-yl)carbonyl)cyclobutanecarboxylic acid] | 102 | 88 | 93.5 | 57 | 99 |
| COc1ccc2c(n1)CCN(C(=O)[C@H]1C[C@@H](CC(=O)O)C1)[C@H]2C(=O)Nc1cc(F)c([Si](C)(C)C)c(F)c1 [Example 23, (cis-3-(((5R)-5-((3,5-difluoro-4-(trimethylsilyl)phenyl)carbamoyl)-2-methoxy-7,8-dihydro-1,6-naphthyridin-6(5H)-yl)carbonyl)cyclobutyl)acetic acid] | 102 | 87 | 85.9 | 96 | 101 |
| COc1ccc2c(n1)CCN(C(=O)[C@H]1C[C@H](CC(=O)O)C1)[C@H]2C(=O)Nc1cc(F)c([Si](C)(C)C)c(F)c1 [Example 28, (trans-3-(((5R)-5-((3,5-difluoro-4-(trimethylsilyl)phenyl)carbamoyl)-2-methoxy-7,8-dihydro-1,6-naphthyridin-6(5H)-yl)carbonyl)cyclobutyl)acetic acid] | 102 | 87 | 89.1 | 91 | 101 |
| COc1ccc2c(c1)CCN(C(=O)[C@H]1C[C@@H]1CC(=O)O)[C@H]2C(=O)Nc1cc(F)c([Si](C)(C)C)c(F)c1 [Example 29, ((1R,2S)-2-(((1R)-1-((3,5-difluoro-4-(trimethylsilyl)phenyl)carbamoyl)-6-methoxy-3,4-dihydroisoquinolin-2(1H)-yl)carbonyl)cyclopropyl)acetic acid] | 102 | 91 | 74.9 | 73 | 102 |
| COc1ccc2c(n1)CCN(C(=O)[C@H]1C[C@@H](C(=O)O)C1)[C@H]2C(=O)Nc1cc(F)c([Si](C)(C)C)c(F)c1 [Example 31, cis-3-(((5R)-5-((3,5-difluoro-4-(trimethylsilyl)phenyl)carbamoyl)-2-methoxy-7,8-dihydro-1,6-naphthyridin-6(5H)-yl)carbonyl)cyclobutanecarboxylic acid] | 102 | 86 | 89.8 | 85 | 102 |
| COc1ccc2c(c1)CCN(C(=O)[C@H]1C[C@@H](CC(=O)O)C1)[C@H]2C(=O)Nc1ccc([Si](C)(C)C)c(F)c1 [Example 33, (cis-3-(((1R)-1-((3-fluoro-4-(trimethylsilyl)phenyl)carbamoyl)-6-methoxy-3,4-dihydroisoquinolin-2(1H)-yl)carbonyl)cyclobutyl)acetic acid] | 102 | 92 | 78.5 | 94 | 102 |
